Measured values taken from patent publication US20120238762A1, “AZOLE DERIVATIVES AND METHODS FOR PRODUCING THE SAME, INTERMEDIATE COMPOUNDS FOR THE DERIVATIVES AND METHODS FOR PRODUCING THE SAME, AND AGRO-HORTICULTURAL AGENTS AND INDUSTRIAL MATERIAL PROTECTING AGENTS CONTAINING THE DERIVATIVES” (KUREHA CORPORATION, priority 2009, published 2012).

Key:
[1] = system: various phytopathogenic fungi for plants and hazardous microorganism for industrial materials; assay: microbe, parasite or virus in culture; type: cell-based; set-up: dose or concentration left out as unconfirmed
[2] = Mycelial growth inhibition on plate medium against industrial material deteriorating microorganisms, treatment at 50 mg/l; details: read-out: Growth inhibition grade
Description: Compound (I) was dissolved in 2 ml of dimethyl sulfoxide. 0.6 ml of this solution was added to 60 ml of a PDA medium (potato dextrose agar medium) and at about 60 degrees C., which was mixed thoroughly in a 100-ml conical flask, and poured into a dish, where it was solidified, thereby obtaining a plate medium containing the inventive compound at a certain concentration.
On the other hand, a subject microorganism previously cultured on a plate medium was cut out using a cork borer whose diameter was 4 mm, and inoculated to the test compound-containing plate medium described above. […] The growth degree of the microorganism on the test compound-containing plate medium was compared with the growth degree of the microorganism in the untreated group, and % mycelial growth inhibition was calculated by the following equation.
wherein R=% mycelial extension inhibition, dc=flora diameter in untreated plate, dt=flora diameter in treated plate.
The results obtained were evaluated as one of the 5 grades in accordance with the following criteria.
<Growth Inhibition Grade>
4: % Mycerial growth inhibition of less than 80 to 60% or higher
3: % Mycerial growth inhibition of less than 60 to 40% or higher
2: % Mycerial growth inhibition of less than 40 to 20% or higher

[3] = Alternaria alternata, read-out: Growth inhibition grade, A.m
[4] = Fusarium graminearum, read-out: Growth inhibition grade, F.g
[5] = Parastagonospora nodorum, read-out: Growth inhibition grade, P.n
[6] = Pyricularia oryzae, read-out: Growth inhibition grade, P.o
[7] = Rhynchosporium secalis, read-out: Growth inhibition grade, R.sec
[8] = Sclerotinia sclerotiorum, read-out: Growth inhibition grade, S.s
[9] = Ustilago nuda, read-out: Growth inhibition grade, U.n
[10] = read-out: Growth inhibition grade, B.c
[11] = read-out: Growth inhibition grade, F.c
[12] = read-out: Growth inhibition grade, G.f
[13] = read-out: Growth inhibition grade, P.h

Compound	inhibition [1, 3] [%]	inhibition [1, 4] [%]	inhibition [1, 5] [%]	inhibition [1, 6] [%]	inhibition [1, 7] [%]	inhibition [1, 8] [%]	inhibition [1, 9] [%]	inhibition [1, 10] [%]	inhibition [1, 11] [%]	inhibition [1, 12] [%]	inhibition [1, 13] [%]	inhibition at 50 µg/mL [2] [%]	melting point [°C]
OC(Cn1cncn1)(C1CC1(Cl)Cl)C1(Cl)CC1 (single isomer, unassigned) [I-2a, 1-(1-chlorocyclopropyl)-1-(2,2-dichlorocyclopropyl)-2-(1H-1,2,4-triazol-1-yl)ethanol]	> 80	> 80	> 80	> 80	> 80	> 80	> 80	> 80	> 80	> 80	> 80	60 to 80	–
OC(CC1CC1(Br)Br)(Cn1cncn1)C1(Cl)CC1 (single isomer, unassigned) [I-210a, 2-(1-chlorocyclopropyl)-1-(2,2-dibromocyclopropyl)-3-(1H-1,2,4-triazol-1-yl)propan-2-ol]	> 80	> 80	> 80	> 80	> 80	> 80	> 80	> 80	> 80	> 80	> 80	60 to 80	114
OC(CC1CC1(Cl)Cl)(CC1CC1(Cl)Cl)Cn1cncn1 (single isomer, unassigned) [I-277a, 1,3-bis(2,2-dichlorocyclopropyl)-2-(1H-1,2,4-triazol-1-ylmethyl)propan-2-ol]	–	–	–	–	–	–	–	–	–	–	–	–	114 to 115
OC(CC1CC1(Cl)Cl)(CC1CC1(Cl)Cl)Cn1cncn1 (single isomer, unassigned) [I-277b, 1,3-bis(2,2-dichlorocyclopropyl)-2-(1H-1,2,4-triazol-1-ylmethyl)propan-2-ol]	–	–	–	–	–	–	–	–	–	–	–	–	105 to 106.5
OC(CCC1CC1(Cl)Cl)(Cn1cncn1)C1(Cl)CC1 (single isomer, unassigned) [I-607a, 2-(1-chlorocyclopropyl)-4-(2,2-dichlorocyclopropyl)-1-(1H-1,2,4-triazol-1-yl)butan-2-ol]	> 80	> 80	> 80	> 80	> 80	> 80	> 80	> 80	> 80	> 80	> 80	–	130 to 131
OC(CCC1CC1(Cl)Cl)(Cn1cncn1)C1(Cl)CC1 (single isomer, unassigned) [I-607b, 2-(1-chlorocyclopropyl)-4-(2,2-dichlorocyclopropyl)-1-(1H-1,2,4-triazol-1-yl)butan-2-ol]	–	–	–	–	–	–	–	–	–	–	–	60 to 80	83 to 84
